A short description of this series: Human HepG2 cell viability assay in 384 well format. Details: dose 125 nL, time 70.5 hour; cytotoxicity at 70.5 h: concentration not given beside the values. The following applies: HepG2 cells, read-out: Inhibition. It is filed as toxicity, cell-based.
As to `O=C(CNC(Cn1cccn1)c1ccccc1)Nc1cnccn1` (centres undefined), the cytotoxicity at 70.5 h was found to be 13%.

As for `CCC[C@@H]1CN(C(=O)c2conc2-c2ccccc2)C[C@H]1N(C)C`, the cytotoxicity at 70.5 h was found to be 0.694%.

In the case of `O=C(NCCCNc1cccnc1)c1ccc2nccn2c1`, the cytotoxicity at 70.5 h is -12.7%.

Take `Cc1cc(NCc2noc(C(C)C)n2)nc(-c2ccccc2)n1`: the cytotoxicity at 70.5 h was found to be 12.1%.

Take `Cc1ncc(C)c(N2CCC(Cc3ccc(Cl)cc3)(C(=O)O)CC2)n1`: the cytotoxicity at 70.5 h is -9.85%.

As to `Cc1nc(C)c(CC(=O)N2C[C@@H](C(=O)O)[C@H](c3ccccc3C)C2)s1`, the cytotoxicity at 70.5 h was -17%.

In the case of `COCCN1CCC(CN(Cc2ccncc2)C2CCC2)CC1`, the cytotoxicity at 70.5 h was -6.79%.

As to `CCC[C@@H]1CN(C(=O)Cc2sc(C)nc2C)C[C@H]1C(=O)O`, the cytotoxicity at 70.5 h is -5.07%.

Take `COCC1CCN(S(=O)(=O)N2C[C@@H](C)[C@](O)(C3CC3)C2)CC1`: the cytotoxicity at 70.5 h is -1.25%.

With `CCOCc1nc2c(c(N(C)Cc3ccsc3)n1)CCNCC2`, the cytotoxicity at 70.5 h was -3.56%.

As for `COc1cccc2c(=O)n(Cc3cc(C4CC4)[nH]n3)cnc12`, the cytotoxicity at 70.5 h came out at 0.602%.

Take `COCCN(Cc1sccc1C)Cc1nccn1CCOC`: the cytotoxicity at 70.5 h was -4.3%.

For the molecule `COC[C@]1(O)CCN(Cc2c[nH]c(CC3CCCC3)n2)CC1(C)C`, the cytotoxicity at 70.5 h was 30.4%.

As to `CC(O)CN1CCc2[nH]nc(C(c3ccccc3)c3ccccc3)c2C1` (centres undefined), the cytotoxicity at 70.5 h was -5.7%.

As to `O=C1C[C@H]2CC[C@@H](CN1)N2c1cc(-c2ccccc2F)nc2ccnn12`, the cytotoxicity at 70.5 h is -4%.

For the molecule `CCc1nc(C)c(-c2nccn2CC2CC(=O)N(CC)C2)[nH]1` (centres undefined), the cytotoxicity at 70.5 h amounted to 1.63%.

Take `Cc1ccc([C@H]2CN(CCO)C[C@@H]2NC(=O)CN2CCCCC2=O)o1`: the cytotoxicity at 70.5 h is -11%.

In the case of `Cc1n[nH]c(C)c1CCN(C)C(=O)c1ccc(CCC(C)(C)O)cc1`, the cytotoxicity at 70.5 h is -3.14%.

With `Cc1ncsc1CN1CCn2nc(CCC(=O)N3CCCC3)cc2C1`, the cytotoxicity at 70.5 h is -6.96%.

Consider `CCc1cc(NCc2cc(CC(C)C)on2)n2nccc2n1`, for which the cytotoxicity at 70.5 h was -2.02%.

For the molecule `Cc1ncsc1CCN(C)C(=O)CN1CC2(CCCC2)CC1=O`, the cytotoxicity at 70.5 h is -15%.

As to `Cc1csc(CCNC(=O)C2CCCN(C3CCOCC3)C2)n1` (centres undefined), the cytotoxicity at 70.5 h is -11.1%.

For the molecule `Cc1nc2c(c(NCC(c3ccccc3C)N(C)C)n1)CCNC2` (centres undefined), the cytotoxicity at 70.5 h is 25.9%.

In the case of `COc1cc(-c2nccn2CCn2cccn2)cc2c1OCO2`, the cytotoxicity at 70.5 h was -1.97%.

As to `Cc1ccc(C(C(=O)NCc2n[nH]c(N)n2)N(C)C)cc1` (centres undefined), the cytotoxicity at 70.5 h was -5.83%.

As for `Cc1cc(C)n2nc(CC(=O)N3CC[C@H]4NCCC[C@]4(CO)C3)nc2n1`, the cytotoxicity at 70.5 h was -3.3%.

Regarding `CCn1c(-c2ccccc2)nn(CC(=O)NCCc2ccc(C)o2)c1=O`, the cytotoxicity at 70.5 h was -0.836%.

In the case of `CC(O)c1cccc(N2CCC3(CCC(=O)N(C4CCCC4)C3)CC2)n1` (centres undefined), the cytotoxicity at 70.5 h is -2.86%.

For `CCOC(=O)CNc1nc(C(C)(C)C)nc2c1cnn2C`, the cytotoxicity at 70.5 h turned out to be 1.33%.

In the case of `CCC(CC)N(Cc1ccc2c(c1)OCO2)C(=O)c1ccc(=O)n(C)c1`, the cytotoxicity at 70.5 h is -1.82%.

As to `O=C1NC2(CCN(C(=O)c3ccc(Cl)cc3)CC2)CC1c1ccccc1` (centres undefined), the cytotoxicity at 70.5 h worked out at 20.8%.

As to `Cc1cc(F)ccc1-c1cc(NCCO)nc2[nH]ccc12`, the cytotoxicity at 70.5 h came to 0.963%.

Regarding `CCCN1CCCC2(CCN(c3nc(C)nc4ccsc34)C2)C1=O` (centres undefined), the cytotoxicity at 70.5 h was -3.49%.

As for `CCc1ccc(OCCN(C)C(=O)c2ccncc2Cl)cc1`, the cytotoxicity at 70.5 h is -5.33%.

In the case of `Cc1nnc(CCNC(=O)C(c2ccc(F)cc2)N(C)C)[nH]1` (centres undefined), the cytotoxicity at 70.5 h is 25%.

As to `Cn1ncc2c(N3CCCC(C)(O)C3)nc(-c3cccnc3)nc21` (centres undefined), the cytotoxicity at 70.5 h was 9.87%.

As for `CCc1nc(N2CCC3(CC2)[C@H](O)C[C@@H]3O)ncc1C`, the cytotoxicity at 70.5 h was -5.93%.

Consider `CN(Cc1nncn1C)c1nccc(C2CCCC2)n1`, for which the cytotoxicity at 70.5 h was determined as 6.4%.

With `CCOc1ccc(CN2CCC3(CC2)CNC(=O)C3)cn1`, the cytotoxicity at 70.5 h was -1.37%.

Consider `COCC(NC1CCSCC1)c1ccnn1C` (centres undefined), for which the cytotoxicity at 70.5 h is 21.8%.

For the molecule `C[C@@H]1CN(C(=O)C2(Cn3cccn3)CC2)C[C@@]1(O)C1CCC1`, the cytotoxicity at 70.5 h was -0.77%.

Turning to `CSCc1ccc(N2CCC(C(O)CC(C)C)CC2)nc1` (centres undefined), the cytotoxicity at 70.5 h is 6.44%.

For the molecule `COc1cccc(-c2n[nH]c3c2CN(C(=O)c2cc(C)n(C)n2)CC3)c1`, the cytotoxicity at 70.5 h was -7.15%.

As for `Cc1cn(CCn2ccnc2-c2sccc2C)nn1`, the cytotoxicity at 70.5 h is -2.5%.

With `Cc1cc(C(=O)N2CC[C@](C)(O)[C@H](C)C2)c(C)n1C`, the cytotoxicity at 70.5 h turned out to be 18.2%.

As to `CCN(Cc1cc(Cl)ccc1OC)Cc1nccn1C`, the cytotoxicity at 70.5 h is 12.7%.

With `CCc1nnc(CNC(=O)c2cc3c(nc2OC)CCC3)s1`, the cytotoxicity at 70.5 h was 2.77%.

Turning to `Cc1ccc(CN2CCN(c3cc(NCCO)ncn3)CC2CCO)o1` (centres undefined), the cytotoxicity at 70.5 h was -5.58%.

For the molecule `COc1nc2ccn(CCc3cnccn3)c(=O)c2cc1C#N`, the cytotoxicity at 70.5 h is 40.2%.

As for `Clc1cc(NCc2ncc[nH]2)nc2[nH]ccc12`, the cytotoxicity at 70.5 h is -6.45%.

As to `COCCN1CC2(CCC1=O)CCN(Cc1cc(F)ccc1Cl)CC2`, the cytotoxicity at 70.5 h amounted to 6.46%.

Consider `Cc1cc2nc(-c3cn(C4CCNCC4)nn3)[nH]c2cc1C`, for which the cytotoxicity at 70.5 h was -2.26%.

For `Cc1cccc(Cn2nc(C3CCNCC3)n(-c3ccccc3)c2=O)c1`, the cytotoxicity at 70.5 h was -5.91%.

Take `COc1ccc2c(c1)OCC(CNC(=O)c1cnc(NC(C)C)nc1)C2` (centres undefined): the cytotoxicity at 70.5 h was 12.5%.

As to `CCc1cnc(N2CCOC(CCOC)C2)nc1` (centres undefined), the cytotoxicity at 70.5 h is -13.5%.

For `O=S(=O)(N1CCOCC1)N1CCOC(CCc2ccccc2)C1` (centres undefined), the cytotoxicity at 70.5 h is -4.48%.

With `COc1ccccc1CCN1CCCC(CN(C)Cc2ccc(C)o2)C1` (centres undefined), the cytotoxicity at 70.5 h is -8.57%.

With `NCC1CN(Cc2cn(CCC(N)=O)c3ccccc23)CCO1` (centres undefined), the cytotoxicity at 70.5 h came to 2.17%.

Turning to `COCc1ncc(-c2nccn2CCn2cnnc2)cn1`, the cytotoxicity at 70.5 h is -2.42%.

For the molecule `Cc1nc(N)nc(N2CCOc3ccc(CO)cc3C2)c1C`, the cytotoxicity at 70.5 h came out at 25.5%.

Turning to `Cc1cnn(CC(=O)N2CCC3(CCC(=O)N(C4CCCC4)C3)CC2)c1`, the cytotoxicity at 70.5 h was -2.24%.

With `CCn1ccnc1CNc1nccc(-c2c(C)nn(C)c2C)n1`, the cytotoxicity at 70.5 h was -15.1%.

As for `CCN(Cc1cc(F)c(OC)c(Cl)c1)Cc1noc(CC(C)C)n1`, the cytotoxicity at 70.5 h is -10.5%.

For the molecule `c1[nH]c(CC2CCCC2)nc1CN1CCCC2(CCOC2)C1` (centres undefined), the cytotoxicity at 70.5 h is -8.93%.

Turning to `CC(C)Cc1noc(-c2ccc(NCc3noc(C(C)C)n3)nc2)n1`, the cytotoxicity at 70.5 h was -5.16%.

Turning to `CO[C@H]1C[C@@H](O)C12CCN(C(=O)c1cccc(CCC(C)(C)O)c1)CC2`, the cytotoxicity at 70.5 h was -0.132%.

As to `O=C(CCO)N[C@H]1CN(CC2CCC2)C[C@@H]1c1ccccc1`, the cytotoxicity at 70.5 h was -3.06%.

Take `Cc1ccsc1CN(c1nc(CCN)nc2ccccc12)C1CC1`: the cytotoxicity at 70.5 h was found to be 10.4%.

For `CN(CC1CCOC1)S(=O)(=O)c1cccc(C(=O)N2CCOCC2)c1` (centres undefined), the cytotoxicity at 70.5 h is -4.27%.

As for `Cc1cc(C)c2nc(CNC3CCNC3=O)cc(O)c2c1` (centres undefined), the cytotoxicity at 70.5 h was -3.2%.

For the molecule `Cc1cc(O)ccc1-c1cc(-c2cnn(C)c2C2CC2)c(C#N)c(N)n1`, the cytotoxicity at 70.5 h is 19.9%.

`CSc1cccc(CNC(=O)C2CC(=O)N(C3CC3)C2)c1` (centres undefined): the cytotoxicity at 70.5 h was -1.83%.

Consider `COc1ncc(-c2ccc(NC(C)=O)cc2)c(OC)n1`, for which the cytotoxicity at 70.5 h was -11%.

With `CN(Cc1cnc(N)nc1)C(=O)C1CCN(C(=O)C2CCCC2)CC1`, the cytotoxicity at 70.5 h was -4.62%.

For `N#Cc1ccc(NCc2cc3n(n2)CCCN(C(=O)C2CCC2)C3)nc1`, the cytotoxicity at 70.5 h was -8.13%.

In the case of `CCc1ccccc1OCCN1CC[C@@]2(O)CCNC[C@H]2C1`, the cytotoxicity at 70.5 h was -3.34%.

For `CCC1(O)CCCN(c2ncnc3c2c(C)nn3C)C1` (centres undefined), the cytotoxicity at 70.5 h is -4.68%.

In the case of `COc1ccc(NC(=O)CCC2CCCN(S(=O)(=O)C3CC3)C2)cc1Cl` (centres undefined), the cytotoxicity at 70.5 h was 5.12%.

As for `Cc1nccc(N2CCC(Cc3cccc(C(=O)O)c3)CC2)n1`, the cytotoxicity at 70.5 h was -6.88%.

Regarding `CCCc1nnc(NCCc2noc(C3CCC3)n2)o1`, the cytotoxicity at 70.5 h is -10.7%.

On to `NC(=O)c1cc2c(nc1CCOc1ccc(F)cc1)CCC2`, for which the cytotoxicity at 70.5 h is -2.31%.

`Cc1nn(C)c(C)c1CN(C)C1CCN(c2ncnc3[nH]cnc23)CC1`: the cytotoxicity at 70.5 h came out at 23.7%.

For the molecule `COc1ccccc1[C@@H]1CN(Cc2nccn2C)C[C@H]1C(=O)O`, the cytotoxicity at 70.5 h was -3.84%.

Regarding `Cc1ccc2nc(C3CCCN3Cc3scnc3C)[nH]c2c1` (centres undefined), the cytotoxicity at 70.5 h is -6.86%.

Regarding `Fc1ccccc1OC1CCN(CCn2cc3ccccc3n2)CC1`, the cytotoxicity at 70.5 h is -22%.

As for `Cc1cc(C)n(CC(=O)N2CCCCC2CCc2cccs2)c(=O)n1` (centres undefined), the cytotoxicity at 70.5 h is -13.4%.

As to `CSCC(=O)N1C[C@@H](C)[C@](O)(C(C)C)C1`, the cytotoxicity at 70.5 h was -7.39%.

On to `O=C(c1cnc(Nc2ccccc2)nc1)N1CCCC2(CCNC2)C1` (centres undefined), for which the cytotoxicity at 70.5 h is -8.38%.

Consider `COc1ccc2[nH]c(=O)c(CN(C)CCN3CCCC3)cc2c1`, for which the cytotoxicity at 70.5 h worked out at 57.1%.

Take `Cn1ncc2c(N[C@H]3CCCC[C@@H]3O)nc(C(C)(C)C)nc21`: the cytotoxicity at 70.5 h is -2.77%.

For `COc1cnc(CN2CC(=O)N(c3ccc(C)cc3)CC2C)cc1O` (centres undefined), the cytotoxicity at 70.5 h is -5.7%.

Turning to `c1ccc(OCCN2CCN(c3ncnc4[nH]ccc34)CC2)cc1`, the cytotoxicity at 70.5 h came to 24.7%.

In the case of `CC(C)n1cnnc1CN(C)C(=O)C1CCCN(C2CCN(C)CC2)C1` (centres undefined), the cytotoxicity at 70.5 h is -3.47%.

Consider `NC(=O)NCC(=O)N1CCCC(c2nccn2Cc2ccncc2)C1` (centres undefined), for which the cytotoxicity at 70.5 h was -1.01%.

In the case of `O=C(CC1CCc2ccccc21)NCCSc1cnn[nH]1` (centres undefined), the cytotoxicity at 70.5 h is -9.43%.

Consider `CC1(C)CN(C(=O)CC2CCS(=O)(=O)CC2)C[C@]1(C)O`, for which the cytotoxicity at 70.5 h was -4.68%.

`O=C(c1cc(-c2cn[nH]c2)nc2ccc(F)cc12)N1CCSCC1`: the cytotoxicity at 70.5 h was -5.34%.

In the case of `COCC(=O)N1C[C@@H](C)[C@](O)(C(C)C)C1`, the cytotoxicity at 70.5 h was -3.63%.

For `Cc1cccc(N2CCN(CC(=O)N3CCCC(N(C)C)CC3)CC2)c1` (centres undefined), the cytotoxicity at 70.5 h was -4.61%.
